Read-outs that look alike come from different tables or passages of the source.
Columns and labels:
WI‐26 VA4 cells [1] = assay: Collagen ELISA (secreted pro‐collagen I)
WI‐26 VA4 cells [2] = assay: CellTiter‐Glo assay (cytotoxicity); details: Homo sapiens

Q: For O=C(CC1NCCCC1O)Cn1cnc2cc(Br)c(Cl)cc2c1=O (stereo not shown) [HF, Halofuginone, reference compound], which IC50 (WI‐26 VA4 cells [1]; Homo sapiens, WI26VA4, 72 h, read-out: IC50 for collagen level, TGF‐β 2 ng/ml, 72 h (Fig 1B)) is on record?
A: Its IC50 is 15.2 nM.

Q: What about the IC50 (WI‐26 VA4 cells [1]; Homo sapiens, WI26VA4, read-out: Collagen IC50 (best-fit value), log(inhibitor) vs. response, variable slope (four parameters) (converted)) of the same compound?
A: The IC50 was 15.2 nM.

Q: And the activity at 1 µM (WI‐26 VA4 cells [1]; Homo sapiens, WI26VA4, read-out: Collagen, % of control (single replicates per experiment), 1000 nM)?
A: Its activity at 1 µM is 3.91%.

Q: What about the activity at 0.0003 µM (WI‐26 VA4 cells [1]; Homo sapiens, WI26VA4, read-out: Collagen, % of control, average, 0.3 nM, average) of the same compound?
A: Its activity at 0.0003 µM is 96.4%.

Q: What about the activity at 0.001 µM (WI‐26 VA4 cells [1]; Homo sapiens, WI26VA4, read-out: Collagen, % of control, average, 1 nM, average) of the same compound?
A: Its activity at 0.001 µM is 103%.

Q: What about the activity at 0.003 µM (WI‐26 VA4 cells [1]; Homo sapiens, WI26VA4, read-out: Collagen, % of control, average, 3 nM, average) of the same compound?
A: The activity at 0.003 µM was 101%.

Q: And the activity at 0.01 µM (WI‐26 VA4 cells [1]; Homo sapiens, WI26VA4, read-out: Collagen, % of control, average, 10 nM, average)?
A: Its activity at 0.01 µM is 71.9%.

Q: What about the activity at 0.03 µM (WI‐26 VA4 cells [1]; Homo sapiens, WI26VA4, read-out: Collagen, % of control, average, 30 nM, average) of the same compound?
A: Its activity at 0.03 µM is 21.6%.

Q: What about the activity at 0.1 µM (WI‐26 VA4 cells [1]; Homo sapiens, WI26VA4, read-out: Collagen, % of control, average, 100 nM, average) of the same compound?
A: The activity at 0.1 µM was 3.57%.

Q: And the activity at 0.3 µM (WI‐26 VA4 cells [1]; Homo sapiens, WI26VA4, read-out: Collagen, % of control, average, 300 nM, average)?
A: Its activity at 0.3 µM is 2.57%.

Q: And the activity at 1 µM (WI‐26 VA4 cells [1]; Homo sapiens, WI26VA4, read-out: Collagen, % of control, average, 1000 nM, average)?
A: Its activity at 1 µM is 3.27%.

Q: What about the activity at 0.0003 µM (WI‐26 VA4 cells [1]; Homo sapiens, WI26VA4, read-out: Efficacy, % of control, average, 0.3 nM) of the same compound?
A: The activity at 0.0003 µM was 104%.

Q: And the activity at 0.001 µM (WI‐26 VA4 cells [1]; Homo sapiens, WI26VA4, read-out: Efficacy, % of control, average, 1 nM)?
A: The activity at 0.001 µM was 104%.

Q: And the activity at 0.003 µM (WI‐26 VA4 cells [1]; Homo sapiens, WI26VA4, read-out: Efficacy, % of control, average, 3 nM)?
A: The activity at 0.003 µM was 108%.

Q: What about the activity at 0.01 µM (WI‐26 VA4 cells [1]; Homo sapiens, WI26VA4, read-out: Efficacy, % of control, average, 10 nM) of the same compound?
A: Its activity at 0.01 µM is 73%.

Q: What about the activity at 0.03 µM (WI‐26 VA4 cells [1]; Homo sapiens, WI26VA4, read-out: Efficacy, % of control, average, 30 nM) of the same compound?
A: The activity at 0.03 µM was 24.9%.

Q: What about the activity at 0.1 µM (WI‐26 VA4 cells [1]; Homo sapiens, WI26VA4, read-out: Efficacy, % of control, average, 100 nM) of the same compound?
A: The activity at 0.1 µM was 3.73%.

Q: And the activity at 0.3 µM (WI‐26 VA4 cells [1]; Homo sapiens, WI26VA4, read-out: Efficacy, % of control, average, 300 nM)?
A: Its activity at 0.3 µM is 2.78%.

Q: And the activity at 1 µM (WI‐26 VA4 cells [1]; Homo sapiens, WI26VA4, read-out: Efficacy, % of control, average, 1000 nM)?
A: The activity at 1 µM was 2.54%.

Q: And the activity at 0.0003 µM (WI‐26 VA4 cells [1]; Homo sapiens, WI26VA4, read-out: Efficacy, % of control, single replicate, 0.3 nM)?
A: The activity at 0.0003 µM was 114%.

Q: What about the activity at 0.001 µM (WI‐26 VA4 cells [1]; Homo sapiens, WI26VA4, read-out: Efficacy, % of control, single replicate, 1 nM) of the same compound?
A: The activity at 0.001 µM was 112%.

Q: And the activity at 1 µM (WI‐26 VA4 cells [1]; Homo sapiens, WI26VA4, read-out: Efficacy, % of control, single replicate, 1000 nM)?
A: The activity at 1 µM was 2.31%.

Q: And the “Collagen HillSlope (best-fit value)” value (WI‐26 VA4 cells [1]; log(inhibitor) vs. response, variable slope (four parameters))?
A: The value was -2.183.

Q: What about the “Collagen LogIC50 (best-fit value)” value (WI‐26 VA4 cells [1]; log(inhibitor) vs. response, variable slope (four parameters), concentration in nM) of the same compound?
A: Its value is 1.183.

Q: What about the IC50 (WI‐26 VA4 cells [1]; read-out: IC50 for collagen level, TGF‐β 2 ng/ml, 72 h (Fig 1B)) of the same compound?
A: The IC50 was 15 nM.

Q: And the activity at 0.001 µM (WI‐26 VA4 cells [2]; WI26VA4, read-out: CellTiter-Glo % of control, 1 nM, Experiment #1, replicates)?
A: Its activity at 0.001 µM is 106%.

Q: And the activity at 0.01 µM (WI‐26 VA4 cells [2]; WI26VA4, read-out: CellTiter-Glo % of control, 10 nM, Experiment #1, replicates)?
A: The activity at 0.01 µM was 99.6%.

Q: And the activity at 0.01 µM (WI‐26 VA4 cells [2]; WI26VA4, read-out: CellTiter-Glo % of control, 10 nM, Experiment #2, replicates)?
A: Its activity at 0.01 µM is 85.1%.

Q: What about the activity at 0.03 µM (WI‐26 VA4 cells [2]; WI26VA4, read-out: CellTiter-Glo % of control, 30 nM, Experiment #2, replicates) of the same compound?
A: The activity at 0.03 µM was 74.1%.

Q: And the activity at 0.1 µM (WI‐26 VA4 cells [2]; WI26VA4, read-out: CellTiter-Glo % of control, 100 nM, Experiment #1, replicates)?
A: The activity at 0.1 µM was 35.7%.

Q: What about the activity at 0.1 µM (WI‐26 VA4 cells [2]; WI26VA4, read-out: CellTiter-Glo % of control, 100 nM, Experiment #2, replicates) of the same compound?
A: The activity at 0.1 µM was 30%.

Q: What about the activity at 0.3 µM (WI‐26 VA4 cells [2]; WI26VA4, read-out: CellTiter-Glo % of control, 300 nM, Experiment #2, replicates) of the same compound?
A: The activity at 0.3 µM was 17.6%.

Q: What about the activity at 1 µM (WI‐26 VA4 cells [2]; WI26VA4, read-out: CellTiter-Glo % of control, 1000 nM, Experiment #1, replicates) of the same compound?
A: The activity at 1 µM was 17.1%.

Q: And the activity at 1 µM (WI‐26 VA4 cells [2]; WI26VA4, read-out: CellTiter-Glo % of control, 1000 nM, Experiment #2, replicates)?
A: The activity at 1 µM was 29.9%.

Q: And the activity at 3 µM (WI‐26 VA4 cells [2]; WI26VA4, read-out: CellTiter-Glo % of control, 3000 nM, Experiment #2, replicates)?
A: Its activity at 3 µM is 11%.

Q: What about the activity at 10 µM (WI‐26 VA4 cells [2]; WI26VA4, read-out: CellTiter-Glo % of control, 10000 nM, Experiment #1, replicates) of the same compound?
A: Its activity at 10 µM is 1.85%.

Q: What about the activity at 10 µM (WI‐26 VA4 cells [2]; WI26VA4, read-out: CellTiter-Glo % of control, 10000 nM, Experiment #2, replicates) of the same compound?
A: Its activity at 10 µM is 4.64%.

Q: What about the activity at 30 µM (WI‐26 VA4 cells [2]; WI26VA4, read-out: CellTiter-Glo % of control, 30000 nM, Experiment #2, replicates) of the same compound?
A: Its activity at 30 µM is 1.49%.

Q: What about the activity at 0.0003 µM (WI‐26 VA4 cells [2]; WI26VA4, read-out: CellTiter-Glo % of control, average, 0.3 nM, average) of the same compound?
A: Its activity at 0.0003 µM is 103%.

Q: And the activity at 0.001 µM (WI‐26 VA4 cells [2]; WI26VA4, read-out: CellTiter-Glo % of control, average, 1 nM, average)?
A: Its activity at 0.001 µM is 102%.

Q: What about the activity at 0.01 µM (WI‐26 VA4 cells [2]; WI26VA4, read-out: CellTiter-Glo % of control, average, 10 nM, average) of the same compound?
A: The activity at 0.01 µM was 92.4%.

Q: What about the activity at 0.03 µM (WI‐26 VA4 cells [2]; WI26VA4, read-out: CellTiter-Glo % of control, average, 30 nM, average) of the same compound?
A: Its activity at 0.03 µM is 77.3%.

Q: And the activity at 0.1 µM (WI‐26 VA4 cells [2]; WI26VA4, read-out: CellTiter-Glo % of control, average, 100 nM, average)?
A: The activity at 0.1 µM was 30.6%.

Q: What about the activity at 0.3 µM (WI‐26 VA4 cells [2]; WI26VA4, read-out: CellTiter-Glo % of control, average, 300 nM, average) of the same compound?
A: Its activity at 0.3 µM is 18.1%.

Q: What about the activity at 1 µM (WI‐26 VA4 cells [2]; WI26VA4, read-out: CellTiter-Glo % of control, average, 1000 nM, average) of the same compound?
A: Its activity at 1 µM is 23.7%.

Q: And the activity at 3 µM (WI‐26 VA4 cells [2]; WI26VA4, read-out: CellTiter-Glo % of control, average, 3000 nM, average)?
A: Its activity at 3 µM is 10.2%.

Q: What about the activity at 10 µM (WI‐26 VA4 cells [2]; WI26VA4, read-out: CellTiter-Glo % of control, average, 10000 nM, average) of the same compound?
A: Its activity at 10 µM is 3.39%.

Q: What about the activity at 30 µM (WI‐26 VA4 cells [2]; WI26VA4, read-out: CellTiter-Glo % of control, average, 30000 nM, average) of the same compound?
A: Its activity at 30 µM is 1.53%.

Q: And the activity at 100 µM (WI‐26 VA4 cells [2]; WI26VA4, read-out: CellTiter-Glo % of control, average, 100000 nM, average)?
A: Its activity at 100 µM is 0.00424%.
